Results from patent publication US7960435B2, “Anti-cancer agents and androgen inhibition activity compound” (University of Maryland, Baltimore, priority 2006, dated 2011).
Changes are numbered by the printed parent chain. Where two headings read alike, the source gives them in different places.

How the values were obtained:
LNCaP cells = assay: Cell growth inhibition (MTT colorimetric assay), LNCaP; assay type: cell-based, human; conditions: for GI50: LNCaP (mutant AR), MTT, means of three experiments, called IC50, read-out: Cytotoxicity GI50 (nM) LNCaP
Source text: (§1) Lead optimization of BTB01434 and further biological studies: BTB01434 (Maybridge) was used as a lead molecule to synthesize new molecules. Although this compound was not as potent as some of the others (cf. Table 4), it was chosen for its ease of modification. New compounds (6-23) were developed using the diaryl sulfonamide compound BTB01434 (FIG. 6) as a scaffold. […] Including new BTB01434 analogs, including diaryl sulfonamide analogs bearing various substituents on the phenyl rings (series A), aryl amide analogs (series B), and amine analogs (series C). These new compounds were evaluated for cell growth inhibition in two human prostate cancer cell lines, (LNCaP and PC-3) by MTT assay. Based on the structures and anti-prostate cancer activities of the new compounds, a structure-activity relationship (SAR) was formulated.
Androgen-dependent LNCaP cells were obtained from American Type Culture Collection (Rockville, Md., USA). Cells were maintained in RPMI 1640 medium supplemented with 10% fetal bovine serum (Atlanta Biologicals, Lawrenceville, Ga., USA) and 1% penicillin/streptomycin. Cells were grown as a monolayer in T75 or T150 tissue culture flasks in a humidified incubator (5% CO2, 95% air) at 37° C.
(§2) LNCaP cells were seeded in 24 well plates (Corning Costar) at a density of 2×10^4 cells per well per 1 mL of medium. Cell were allowed to adhere to the plate for 24 hours and then treated with different concentrations of ARDAs dissolved in DMSO. Cells were treated for five days with renewal of ARDA and media on day 3. On the fifth day, medium was renewed and 100 μL of MTT (3-(4,5-dimethylthiazol-2-yl)-2,5-diphenyl-2H-tetrazolium bromide from Sigma) solution (0.5 mg MTT/mL of medium) was added to the medium such that the ratio of MTT:medium was 1:10. The cells were incubated with MTT for 2 hours. The medium was then aspirated and 500 μL of DMSO was added to solubilize the violet MTT-formazan product. The absorbance at 560 nm was measured by spectrophotometry (Victor 1420 multilabel counted, Wallac). For each concentration of ARDA there were triplicate wells in each independent experiment. IC50 values were calculated by nonlinear regression analysis using GraphPad Prism software.

PC-3 cells = assay: Cell growth inhibition (MTT assay), PC-3; assay type: cell-based, human; conditions: Homo sapiens, PC-3 (AR null), means of three experiments, called IC50, read-out: Cytotoxicity GI50 (nM) PC-3
Source text: as §1
Inhibition of prostate cancer cell proliferation and SAR: The exemplary compounds were then tested for their ability to inhibit cell viability in both the LNCaP (mutant AR) and PC-3 (AR null) cell lines (Table 5).
as §2

wild-type AR = target: T1, wild-type AR (Homo sapiens, UniProt P10275); assay: Competitive androgen receptor binding with [3H]-R1881 in PC-3-AR cells; conditions: PC-3-AR cells
T1 construct: expressed in transfected cells; host or cells: PC-3 (stably transfected, PC-3-AR)
T1 sequence (P10275 1-920): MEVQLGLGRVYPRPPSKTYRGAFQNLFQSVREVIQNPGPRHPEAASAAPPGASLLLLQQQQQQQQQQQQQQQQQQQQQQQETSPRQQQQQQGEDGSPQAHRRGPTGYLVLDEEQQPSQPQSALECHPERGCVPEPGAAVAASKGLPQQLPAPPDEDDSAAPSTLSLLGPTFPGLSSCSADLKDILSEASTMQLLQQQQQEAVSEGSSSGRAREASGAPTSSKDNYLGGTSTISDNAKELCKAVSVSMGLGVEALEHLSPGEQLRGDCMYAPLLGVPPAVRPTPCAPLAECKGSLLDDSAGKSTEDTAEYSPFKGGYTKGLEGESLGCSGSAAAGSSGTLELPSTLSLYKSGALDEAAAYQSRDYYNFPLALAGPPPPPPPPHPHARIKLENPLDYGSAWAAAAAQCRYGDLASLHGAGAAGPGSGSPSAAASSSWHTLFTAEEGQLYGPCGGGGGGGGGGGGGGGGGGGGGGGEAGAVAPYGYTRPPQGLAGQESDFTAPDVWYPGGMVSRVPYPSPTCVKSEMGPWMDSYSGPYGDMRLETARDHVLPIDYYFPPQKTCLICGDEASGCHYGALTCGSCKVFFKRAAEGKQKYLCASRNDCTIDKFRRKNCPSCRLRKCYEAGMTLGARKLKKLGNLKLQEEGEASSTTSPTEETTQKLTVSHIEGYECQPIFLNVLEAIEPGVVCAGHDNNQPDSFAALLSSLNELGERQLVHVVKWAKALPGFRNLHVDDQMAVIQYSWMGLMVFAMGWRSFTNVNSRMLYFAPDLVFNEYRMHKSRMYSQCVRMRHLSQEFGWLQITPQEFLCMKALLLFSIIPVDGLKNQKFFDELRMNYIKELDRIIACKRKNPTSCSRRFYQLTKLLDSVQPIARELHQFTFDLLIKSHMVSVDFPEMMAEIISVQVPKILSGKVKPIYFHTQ
Method: (§3) In both cell lines, compounds 9 and 11 were able to effectively compete with labeled R1881 in a dose-dependent fashion (FIG. 11). In PC-3-AR cells compound II reduced [^3H]-R1881 binding by 65% and 80% at 10 μM and 20 μM, respectively. […] Compound 9 reduced [^3H]-R1881 binding by 50% and 65% at 10 μM and 20 μM, respectively, and was equipotent in both cell lines.
(§4) These assays were performed as previously described.^10

mutated AR = target: T2, mutated AR (Homo sapiens, UniProt P10275, T878A); assay: Competitive androgen receptor binding with [3H]-R1881 in LNCaP cells
T2 construct: we utilized the LNCaP cell line which contains a mutant AR; host or cells: LNCaP
T2 sequence (P10275 1-920 T878A): T1 sequence (P10275 1-920) with T878A
Method: as §3, §4

[1] = system: AR-mediated transcription (LNCaP-AR); assay: Luciferase transactivation assay in LNCaP cells transfected with ARR2-Luc; assay type: cell-based, human; conditions: for effect on luciferase activity, compound alone: without DHT
Method: FIG. 12. […] Cells in steroid-free medium were treated with vehicle, or increasing concentrations of either 9 or 11 with and without 5 nM DHT for 18 h. Cells were then assayed for luciferase activity using a know assay.^10
To determine if the compounds act as AR agonists or antagonists, androgen regulated transcriptional activation studies were performed in LNCaP cells transiently transfected with the probasin luciferase reported construct ARR2-Luc.
as §4

SMILES	GI50 (LNCaP cells; Homo sapiens, LNCaP) [nM]	GI50 (PC-3 cells) [nM]	reduction of [3H]-R1881 binding (wild-type AR; 10 μM) [%]	reduction of [3H]-R1881 binding (wild-type AR; 20 μM) [%]	reduction of [3H]-R1881 binding (mutated AR; 10 μM) [%]	reduction of [3H]-R1881 binding (mutated AR; 20 μM) [%]	effect on luciferase activity, compound alone ([1]; 0.1 μM)	reduction of luciferase expression in the presence of DHT ([1]; 10 μM, with 5 nM DHT) [%]	effect on luciferase activity, compound alone ([1]; 10 μM)	GI50 (LNCaP cells) [nM]	fold less potent than compound 8 (GI50) (LNCaP cells; LNCaP cells) [fold]	fold more potent than compound 6 (GI50) (LNCaP cells; LNCaP cells) [fold]	melting point [°C]
Cc1ccc(NS(=O)(=O)c2ccc(F)cc2)c([N+](=O)[O-])c1 [Compound 9, [(4-Fluorophenyl)sulfonyl](4-methyl-2-nitrophenyl)amine]	2.34	850	50	65	50	65	slight increase	50	did not increase	–	–	–	–
O=[N+]([O-])c1ccccc1NS(=O)(=O)c1ccccc1 [Compound 7, (2-Nitrophenyl)(phenylsulfonyl)amine]	14.8	22900	–	–	–	–	–	–	–	14.1	5	5.6	102
